From PMC10620772, “Design, synthesis, and biological evaluation of new pyrimidine-5-carbonitrile derivatives as novel anti-cancer, dual EGFR^WT/COX-2 inhibitors with docking studies” (RSC Advances, 2023)
Where “and” joins values, the source holds several entries; their conditions need not be identical. Equal entries are not always repeated. Entries after “also recorded” stand apart in the source; their conditions may differ.

Columns and labels:
Format in all cases: cell-based, human
NCI-H522 = assay: NCI60 antitumor screening
NCI-H23 = assay: NCI60 antitumor screening
NCI60 cell lines panel = assay: NCI60 antitumor screening, full panel
Summary of the method: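 Percent growth inhibition (GI%) was recorded for each of the NCI60 lines, spanning leukaemia, lung, colon, CNS, melanoma, ovarian, renal, prostate and breast cancers, after exposure to compounds at one concentration, 10 μM.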

SN12C = assay: NCI60 antitumor screening
U251 = assay: NCI60 antitumor screening
HT29 = assay: NCI60 antitumor screening
NCI-H460 = assay: NCI60 antitumor screening
T-47D = assay: NCI60 antitumor screening
786–0 = assay: NCI60 antitumor screening
SK-MEL-28 = assay: NCI60 antitumor screening; details: Homo sapiens; 10 μM single dose; SK-MEL-28 (melanoma); read-out: growth inhibition percent (GI%)
RPMI-8226 = assay: NCI60 antitumor screening
COLO 205 = assay: NCI60 antitumor screening
OVCAR-3 = assay: NCI60 antitumor screening
TK-10 = assay: NCI60 antitumor screening
BT-549 = assay: NCI60 antitumor screening
M14 = assay: NCI60 antitumor screening
HCT-116 = assay: NCI60 antitumor screening; details: Homo sapiens, HCT-116, five-dose

`N#Cc1c(-c2ccc(F)cc2)nc(SCc2ccc(F)cc2)nc1N1CCNCC1` [4f, 2-((4-Fluorobenzyl)thio)-4-(4-fluorophenyl)-6-(piperazin-1-yl) pyrimidine-5-carbonitrile] was tested. Which GI50 (NCI-H522; Homo sapiens, NCI-H522, five-dose) did it give?
Its GI50 is 13.9 µM.

What about the CC50 (NCI-H522; Homo sapiens, NCI-H522, five-dose, read-out: LC50 (the source's name)) of the same compound?
The CC50 was 64.3 µM.

What about the inhibition at 10 µM (NCI-H522; Homo sapiens, 10 μM single dose, NCI-H522 (non-small cell lung cancer), read-out: growth inhibition percent (GI%)) of the same compound?
The inhibition at 10 µM was over 100%.

And the TGI (NCI-H522; five-dose)?
Its TGI is 29.90 µM.

What about the GI50 (NCI-H23; Homo sapiens, NCI-H23, five-dose) of the same compound?
Its GI50 is 16 µM.

And the CC50 (NCI-H23; Homo sapiens, NCI-H23, five-dose, read-out: LC50 (the source's name))?
Its CC50 is 57.5 µM.

What about the inhibition at 10 µM (NCI-H23; Homo sapiens, 10 μM single dose, NCI-H23 (non-small cell lung cancer), read-out: growth inhibition percent (GI%)) of the same compound?
The inhibition at 10 µM was over 100%.

What about the TGI (NCI-H23; five-dose) of the same compound?
Its TGI is 30.40 µM.

What about the “One-dose activity over the NCI60 panel” value (NCI60 cell lines panel; 10 μM) of the same compound?
Its value is “lethal to most of cell lines; also recorded: Lethal to almost all NCI60 cell lines”.

And the inhibition at 10 µM (NCI60 cell lines panel; Homo sapiens, 10 μM single dose, mean over NCI60 cell lines, read-out: Mean growth inhibition percent (GI%))?
Its inhibition at 10 µM is over 100%.

And the GI50 (NCI60 cell lines panel; Homo sapiens, average of all cell lines, read-out: Full panel MG-MID (GI50))?
Its GI50 is 13.5 µM.

What about the “Full panel MG-MID (TGI)” value (NCI60 cell lines panel; average of all cell lines) of the same compound?
Its value is 26.45 μM and 26.45 ^e μM.

What about the GI50 (SN12C; Homo sapiens, SN12C, five-dose) of the same compound?
Its GI50 is 15.3 µM.

And the CC50 (SN12C; Homo sapiens, SN12C, five-dose, read-out: LC50 (the source's name))?
Its CC50 is 55.2 µM.

What about the inhibition at 10 µM (SN12C; Homo sapiens, 10 μM single dose, SN12C (renal cancer), read-out: growth inhibition percent (GI%)) of the same compound?
The inhibition at 10 µM was over 100%.

What about the TGI (SN12C; five-dose) of the same compound?
Its TGI is 29.00 µM.

What about the inhibition at 10 µM (U251; Homo sapiens, U-251, 10 μM single dose, U251 (CNS cancer), read-out: growth inhibition percent (GI%)) of the same compound?
Its inhibition at 10 µM is over 100%.

And the GI50 (U251; Homo sapiens, U-251, five-dose)?
Its GI50 is 10.3 µM.

And the CC50 (U251; Homo sapiens, U-251, five-dose, read-out: LC50 (the source's name))?
The CC50 was 59.1 µM.

What about the TGI (U251; five-dose) of the same compound?
The TGI was 24.70 µM.

And the inhibition at 10 µM (HT29; Homo sapiens, HT-29, 10 μM single dose, HT29 (colon cancer), read-out: growth inhibition percent (GI%))?
Its inhibition at 10 µM is over 100%.

And the GI50 (HT29; Homo sapiens, HT-29, five-dose)?
The GI50 was 4.87 µM.

And the CC50 (HT29; Homo sapiens, HT-29, five-dose, read-out: LC50 (the source's name))?
Its CC50 is 51.7 µM.

What about the TGI (HT29; five-dose) of the same compound?
Its TGI is 17.30 µM.

And the GI50 (NCI-H460; Homo sapiens, NCI-H460, five-dose)?
The GI50 was 14.3 µM.

And the CC50 (NCI-H460; Homo sapiens, NCI-H460, five-dose, read-out: LC50 (the source's name))?
Its CC50 is 60.4 µM.

What about the inhibition at 10 µM (NCI-H460; Homo sapiens, 10 μM single dose, NCI-H460 (non-small cell lung cancer), read-out: growth inhibition percent (GI%)) of the same compound?
The inhibition at 10 µM was over 100%.

What about the TGI (NCI-H460; five-dose) of the same compound?
The TGI was 29.40 µM.

What about the inhibition at 10 µM (T-47D; Homo sapiens, T47D, 10 μM single dose, T-47D (breast cancer), read-out: growth inhibition percent (GI%)) of the same compound?
Its inhibition at 10 µM is over 100%.

What about the GI50 (T-47D; Homo sapiens, T47D, five-dose) of the same compound?
The GI50 was 13.8 µM.

What about the CC50 (T-47D; Homo sapiens, T47D, five-dose, read-out: LC50 (the source's name)) of the same compound?
The CC50 was 67.2 µM.

And the TGI (T-47D; five-dose)?
Its TGI is 30.40 µM.

What about the GI50 (786–0; Homo sapiens, 786-0, five-dose) of the same compound?
Its GI50 is 13.8 µM.

What about the LC50 (concentration killing 50% of tumour cells) (786–0; Homo sapiens, 786-0, five-dose) of the same compound?
The LC50 (concentration killing 50% of tumour cells) was 62.6 µM.

What about the inhibition at 10 µM (786–0; Homo sapiens, 10 μM single dose, 786–0 (renal cancer), read-out: growth inhibition percent (GI%)) of the same compound?
Its inhibition at 10 µM is over 100%.

What about the TGI (786–0; five-dose) of the same compound?
Its TGI is 29.30 µM.

What about the inhibition at 10 µM (SK-MEL-28) of the same compound?
Its inhibition at 10 µM is over 100%.

And the GI50 (RPMI-8226; Homo sapiens, RPMI-8226, five-dose)?
Its GI50 is 6.75 µM.

What about the CC50 (RPMI-8226; Homo sapiens, RPMI-8226, five-dose, read-out: LC50 (the source's name)) of the same compound?
Its CC50 is 74.4 µM.

And the inhibition at 10 µM (RPMI-8226; Homo sapiens, 10 μM single dose, RPMI-8226 (leukaemia), read-out: growth inhibition percent (GI%))?
The inhibition at 10 µM was over 100%.

And the TGI (RPMI-8226; five-dose)?
The TGI was 24.60 µM.

What about the IC50 (COLO 205; Homo sapiens, COLO 205) of the same compound?
Its IC50 is 1.83 µM.

What about the GI50 (COLO 205; Homo sapiens, COLO 205, five-dose) of the same compound?
Its GI50 is 1.83 µM.

And the CC50 (COLO 205; Homo sapiens, COLO 205, five-dose, read-out: LC50 (the source's name))?
Its CC50 is 6.34 µM.

What about the inhibition at 10 µM (COLO 205; Homo sapiens, 10 μM single dose, COLO 205 (colon cancer), read-out: growth inhibition percent (GI%)) of the same compound?
The inhibition at 10 µM was over 100%.

And the TGI (COLO 205; five-dose)?
The TGI was 3.40 µM.

What about the GI50 (OVCAR-3; Homo sapiens, OVCAR-3, five-dose) of the same compound?
Its GI50 is 15.5 µM.

And the CC50 (OVCAR-3; Homo sapiens, OVCAR-3, five-dose, read-out: LC50 (the source's name))?
The CC50 was 61.2 µM.

And the inhibition at 10 µM (OVCAR-3; Homo sapiens, 10 μM single dose, OVCAR-3 (ovarian cancer), read-out: growth inhibition percent (GI%))?
The inhibition at 10 µM was over 100%.

What about the TGI (OVCAR-3; five-dose) of the same compound?
Its TGI is 30.80 µM.

And the GI50 (TK-10; Homo sapiens, TK-10, five-dose)?
Its GI50 is 15 µM.

And the LC50 (TK-10; Homo sapiens, TK-10, five-dose)?
The LC50 was 58.8 µM.

What about the inhibition at 10 µM (TK-10; Homo sapiens, 10 μM single dose, TK-10 (renal cancer), read-out: growth inhibition percent (GI%)) of the same compound?
The inhibition at 10 µM was over 100%.

And the TGI (TK-10; five-dose)?
The TGI was 29.70 µM.

What about the GI50 (BT-549; Homo sapiens, BT-549, five-dose) of the same compound?
Its GI50 is 10.7 µM.

What about the CC50 (BT-549; Homo sapiens, BT-549, five-dose, read-out: LC50 (the source's name)) of the same compound?
The CC50 was 49.4 µM.

And the inhibition at 10 µM (BT-549; Homo sapiens, 10 μM single dose, BT-549 (breast cancer), read-out: growth inhibition percent (GI%))?
Its inhibition at 10 µM is 17.3%.

What about the TGI (BT-549; five-dose) of the same compound?
The TGI was 23.00 µM.

What about the GI50 (M14; Homo sapiens, M14, five-dose) of the same compound?
Its GI50 is 13.6 µM.

What about the CC50 (M14; Homo sapiens, M14, five-dose, read-out: LC50 (the source's name)) of the same compound?
Its CC50 is 52.9 µM.

What about the inhibition at 10 µM (M14; Homo sapiens, 10 μM single dose, M14 (melanoma), read-out: growth inhibition percent (GI%)) of the same compound?
Its inhibition at 10 µM is over 100%.

What about the TGI (M14; five-dose) of the same compound?
The TGI was 26.80 µM.

What about the GI50 (HCT-116) of the same compound?
The GI50 was 4.15 µM.

What about the CC50 (HCT-116; read-out: LC50 (the source's name)) of the same compound?
Its CC50 is 42.8 µM.
